According to patent US7435548B2, “Methods for producing ex vivo models for inflammatory disease and uses thereof” (deCODE genetics ehf., priority 2001, dated 2008):

Key:
[1] = test system: airway smooth muscle (ASM) tissues; test: ASM constrictor responses to acetylcholine (organ bath, isometric tension); assay type: tissue-based, New Zealand White rabbits
Procedure: (§1) After anesthesia with xylazine (10 mg/kg) and ketamine (50 mg/kg), the animals were sacrificed with systemic air embolism.
(§2) After incubation, each airway segment was suspended longitudinally between stainless steel triangular supports in siliconized 20-mL organ baths (Harvard Apparatus, Inc., South Natick, Mass.). […] Care was taken to place the membranous portion of the trachea between the supports to maximize the recorded tension generated by the contracting trachealis muscle. […] Passive resting tension of each tracheal smooth muscle segment was set at 2.0 g after each tissue had been passively stretched to a tension of 8 g to optimize the resting length of each segment. The tissues were allowed to equilibrate in the bath for 45 minutes, at which time each tissue was primed with a 1 minute exposure to 10^−4M acetylcholine (ACh). Cholinergic contractility was initially assessed in the ASM by cumulative administration of ACh in final bath concentrations from 10^−9 to 10^−3M. […] The relaxant responses to isoproterenol were analyzed in terms of percent maximal relaxation (Rmax) from the active cholinergic contraction, and sensitivity to the relaxing agent was determined as the corresponding pD50 value associated with 50% Rmax.

[2] = test system: airway smooth muscle (ASM) tissues; test: ASM relaxant responses to isoproterenol after half-maximal ACh contraction (organ bath); assay type: tissue-based, New Zealand White rabbits; conditions: control ASM
Procedure: as §1, §2

human ASM cells = test: Microarray mRNA expression (Affymetrix HU95GeneFL) in cultured ASM cells; assay type: cell-based
From the text: Simultaneous multiple gene mRNA expression was examined in human ASM cells with the Affymetrix expression microarray system using human gene chips (HU95GeneFL array; Affymetrix, Santa Clara, Calif.) representing approximately 6000 genes. The ASM cells were derived from a donor (Clonetics Corp., San Diego, Calif.) who had no evidence of pulmonary disease, and the cells were carefully characterized by the manufacturer with specific markers to confirm their selective smooth muscle phenotype and to exclude contamination with other cell types.
Following incubation of the cells, the total RNA used for the Affymetrix microarray expression analysis was extracted and purified using commercially available reagents and in accordance with methods recommended by the manufacturer (Affymetrix, Santa Clara, Calif.). Briefly, total RNA was extracted using Trizol and purified with Qiagen RNAEASY spin columns (Qiagen GmbH, Germany). Approximately 5 μg of RNA was used for first and second strand cDNA synthesis. After precipitation, the cDNAs were transcribed to cRNAs. The biotinylated cRNA was subsequently hybridized to the Affymetrix gene chips overnight. Non-bound probes were removed by stringency washing. The hybridized chips were developed using a Streptavidin-Phycoerythrin complex and scanned. The scanned images were then analyzed with Affymetrix software and the data was examined using commercially available software programs, including Spotfire Net 5.1 (Spotfire Inc, Mass.).

[3] = control ASM (medium alone), mean±SE

CC(=O)OCC[N+](C)(C)C [ACh, acetylcholine]
maximal isometric force of contraction (Tmax) to ACh [1, 3]: 93.7±8.9 g/g ASM weight | pD50 (−log ED50) for ACh [1, 3]: 4.66±0.12 −logM

CC(C)NCC(O)c1ccc(O)c(O)c1 (stereo not drawn) [isoproterenol]
EC50 ([2]; Oryctolagus cuniculus, read-out: pD50 for isoproterenol (converted)): 813 nM | maximal relaxation (Rmax) to isoproterenol [2]: 57.7±7.1%

C[C@@H]1C[C@H]2[C@@H]3CCC4=CC(=O)C=C[C@]4(C)[C@@]3(F)[C@@H](O)C[C@]2(C)[C@@]1(O)C(=O)CO [DEX, dexamethasone]
effect on constrictor responses to ACh in control tissues ([1]; DEX 10^−5M alone): no effect | Tmax to ACh ([1]; IL-1β/TNFα exposed ASM pre-treated 1 hour with DEX 10^−5M, mean±SE): 102.9±13.1 g/g ASM weight | MER, ABCB2 (human ASM cells; ATP-binding cassette, ABCB2/X57522, IL-1β/TNFα, presence or absence of DEX 10^−5M): 1.75 | MER, AMPD3 (human ASM cells; Adenosine monophosphate deaminase, AMPD3/D12775, IL-1β/TNFα, presence versus absence of DEX 10^−5M): 0.82 | MER, BCL2A1 (human ASM cells; BCL2-related protein A1, BCL2A1/U29680, IL-1β/TNFα, presence versus absence of DEX 10^−5M): 0.41 | MER, BKR2 (human ASM cells; Bradykinin receptor-2, BKR2/X86163, IL-1β/TNFα, presence versus absence of DEX 10^−5M): 0.62 | MER, CD83 (human ASM cells; CD83, CD83/Z11697, IL-1β/TNFα, presence versus absence of DEX 10^−5M): 0.56 | MER, CKS2 (human ASM cells; CDC28 protein kinase-2, CKS2/X54942, IL-1β/TNFα, presence versus absence of DEX 10^−5M): 0.80 | MER, CEBPD (human ASM cells; Enhancer binding protein, CEBPD/M83667, IL-1β/TNFα, presence or absence of DEX 10^−5M): 1.48 | MER, FGF2 (human ASM cells; Fibroblast growth factor-2, FGF2/J04513, IL-1β/TNFα, presence versus absence of DEX 10^−5M): 0.69 | MER, GBP1 (human ASM cells; Guanylate binding protein-1, GBP1/M55542, IL-1β/TNFα, presence or absence of DEX 10^−5M): 1.22 | MER, HSD11B1 (human ASM cells; Hydroxysteroid (11-β) dehydrogenase-1, HSD11B1/M7665, IL-1β/TNFα, presence or absence of DEX 10^−5M): 2.57 | MER, INHBA (human ASM cells; Inhibin, INHBA/X57579, IL-1β/TNFα, presence versus absence of DEX 10^−5M): 0.00 | MER, ICAM-1 (human ASM cells; Intercellular adhesion molecule-1, ICAM-1/M24283, mRNA elicited by IL-1β/TNFα in presence versus absence of DEX 10^−5M): 0.66 | MER, IL-6 (human ASM cells; Interleukin-6, IL-6/X04602, IL-1β/TNFα, presence versus absence of DEX 10^−5M): 0.89 | MER, IL-8 (human ASM cells; Interleukin-8, IL-8/M28130, IL-1β/TNFα, presence versus absence of DEX 10^−5M): 0.57 | MER, Interleukin-13 receptor-α (human ASM cells; Interleukin-13 receptor-α, IL-1 RA2/U70981, IL-1β/TNFα, presence versus absence of DEX 10^−5M): 0.00 | MER, KIAA0247 (human ASM cells; KIAA0247 gene product, KIAA0247/D87434, IL-1β/TNFα, presence or absence of DEX 10^−5M): 1.3 | MER, MMP3 (human ASM cells; Matrix metalloproteinase-3, MMP3/X05232, IL-1β/TNFα, presence versus absence of DEX 10^−5M): 0.70 | MER, MMP10 (human ASM cells; Matrix metalloproteinase-10, MMP10/X07820, IL-1β/TNFα, presence versus absence of DEX 10^−5M): 0.00 | MER, MMP12 (human ASM cells; Matrix metalloproteinase-12, MMP12/L23808, IL-1β/TNFα, presence versus absence of DEX 10^−5M): 0.20 | MER, MAP3K5 (human ASM cells; Mitogen-activated protein kinase kinase kinase-5, MAP3K5/U67156, IL-1β/TNFα, presence or absence of DEX 10^−5M): 1.65 | MER, MDCP (human ASM cells; Monocyte-derived chemotactic protein, MDCP/HG4069, IL-1β/TNFα, presence versus absence of DEX 10^−5M): 0.29 | MER, NAF1 (human ASM cells; Nef-associated factor 1, NAF1/D30755, IL-1β/TNFα, presence versus absence of DEX 10^−5M): 0.88 | MER, NINJ1 (human ASM cells; Ninjurin-1, NINJ1/U72661, IL-1β/TNFα, presence versus absence of DEX 10^−5M): 0.59 | MER, NFATC1 (human ASM cells; Nuclear factor of activated T cells-C1, NFATC1/U08015, IL-1β/TNFα, presence versus absence of DEX 10^−5M): 0.61 | MER, NFKB1 (human ASM cells; Nuclear factor of kappa light polypeptide, NFKB1/M58603, IL-1β/TNFα, presence versus absence of DEX 10^−5M): 0.87 | MER, NR4A3 (human ASM cells; Nuclear receptor subfamily 4, NR4A3/U12767, IL-1β/TNFα, presence versus absence of DEX 10^−5M): 0.54 | MER, PTX3 (human ASM cells; PTX3 promoter, PTX3/X97748, IL-1β/TNFα, presence versus absence of DEX 10^−5M): 0.69 | MER, PDE4B (human ASM cells; Phosphodiesterase-4B, PDE4B/L20971, IL-1β/TNFα, presence versus absence of DEX 10^−5M): 0.40 | MER, ATP2B1 (human ASM cells; Plasma membrane Ca^2+ ATPase, ATP2B1/J04027, IL-1β/TNFα, presence versus absence of DEX 10^−5M): 0.34 | MER, PBEF (human ASM cells; Pre-B cell colony-enhancing factor, PBEF/U02020, IL-1β/TNFα, presence versus absence of DEX 10^−5M): 0.73 | MER, G0S2 (human ASM cells; Putative lymphocyte G0/G1 switch gene, G0S2/M72885, IL-1β/TNFα, presence versus absence of DEX 10^−5M): 0.65 | MER, RANTES (human ASM cells; RANTES, RANTES/M21121, IL-1β/TNFα, presence versus absence of DEX 10^−5M): 0.67 | MER, STAT5A (human ASM cells; Signal transducer/activator of transcription 5, STAT5A/U43185, IL-1β/TNFα, presence versus absence of DEX 10^−5M): 0.87 | MER, SCYA7 (human ASM cells; Small inducible cytokine subfamily A7, SCYA7/X72308, IL-1β/TNFα, presence versus absence of DEX 10^−5M): 0.50 | MER, SCYB2 (human ASM cells; Small inducible cytokine subfamily B2, SCYB2/M57731, IL-1β/TNFα, presence versus absence of DEX 10^−5M): 0.52 | MER, SCYB3 (human ASM cells; Small inducible cytokine subfamily B3, SCYB3/X53800, IL-1β/TNFα, presence versus absence of DEX 10^−5M): 0.83 | MER, SCYB6 (human ASM cells; Small inducible cytokine subfamily B6, SCYB6/U83303, IL-1β/TNFα, presence versus absence of DEX 10^−5M): 0.61 | MER, SCYB10 (human ASM cells; Small inducible cytokine subfamily B10, SCYB10/X02530, IL-1β/TNFα, presence or absence of DEX 10^−5M): 1.12 | MER, SCYB5 (human ASM cells; Small inducible subfamily B5, SCYB5/L37036, IL-1β/TNFα, presence or absence of DEX 10^−5M): 1.75 | MER, SOD2 (human ASM cells; Superoxide dismutase-2, SOD2/X07834, IL-1β/TNFα, presence versus absence of DEX 10^−5M): 0.89 | MER, Tenascin C (human ASM cells; Tenascin C, HXB/X78565, IL-1β/TNFα, presence or absence of DEX 10^−5M): 1.21 | MER, TNF-αIP3 (human ASM cells; Tumor necrosis factor-α-induced protein 3, TNF-αIP3/M59465, IL-1β/TNFα, presence or absence of DEX 10^−5M): 1.21 | MER, TNF-αIP6 (human ASM cells; Tumor necrosis factor-α-induced protein 6, TNF-αIP6/M31165, IL-1β/TNFα, presence or absence of DEX 10^−5M): 1.11 | MER, uPA (human ASM cells; Urokinase plasminogen activator, uPA/X02419, IL-1β/TNFα, presence versus absence of DEX 10^−5M): 0.00 | inhibition of IL-1β/TNFα induced mRNA expression, p50-NF-kB gene (human ASM cells; in the presence of DEX 10^−5M): 51% | inhibition of IL-1β/TNFα induced mRNA expression, phosphodiesterase D4 gene (human ASM cells; in the presence of DEX 10^−5M): 60% | inhibition of IL-1β/TNFα induced mRNA expression, plasma membrane Ca^2+ ATPase gene (human ASM cells; in the presence of DEX 10^−5M): 66% | MER, pro-Interleukin-1β (human ASM cells; pro-Interleukin-1β, IL-1β/X04500, IL-1β/TNFα, presence versus absence of DEX 10^−5M): 0.45
